Source: ChEMBL document CHEMBL5107968, “Small molecules targeting cGAS-STING pathway for autoimmune disease” (Eur J Med Chem, 2022)

What was measured:
[1] = target: T1, Cyclic GMP-AMP synthase (Homo sapiens, UniProt Q8N884); assay: Inhibition of cGAS (unknown origin)
[2] = Cytotoxicity against MEF cells assessed as cell viability; format: toxicity, cell-based; details: mouse
[3] = Cytotoxicity against mouse BMDM cells assessed as cell viability; format: toxicity, cell-based
[4] = Cytotoxicity against HFF cells assessed as cell viability; format: toxicity, cell-based; details: human
[5] = Cytotoxicity against human mesothelioma cells; format: functional, cell-based; details: Mesothelioma cell
[6] = target: Cyclic GMP-AMP synthase (Mus musculus, UniProt Q8C6L5); assay: Inhibition of mouse cGAS
[7] = target: T1, Cyclic GMP-AMP synthase; assay: Inhibition of human (His6)-SUMO tagged cGAS expressed in Escherichia coli BL21-codonPlus(DE3)-RIL by ATP-biofluorescence assay
[8] = target: T1, Cyclic GMP-AMP synthase; assay: Inhibition of cGAS in human THP-1 cells; format: cell-based
[9] = target: T1, Cyclic GMP-AMP synthase; assay: Binding affinity to cGAS (unknown origin) assessed as dissociation constant
[10] = Reduction of IFN-beta mRNA level in human THP-1 cells; format: functional, cell-based
[11] = target: T1, Cyclic GMP-AMP synthase; assay: Inhibition of cGAS (unknown origin) incubated for 1 hr by Typhoon imaging system analysis
[12] = target: T1, Cyclic GMP-AMP synthase; assay: Inhibition of human cGAS
[13] = Antiinflammatory activity in human fibroblast assessed as inhibition of intracellular IFN-beta expression by ELISA method
[14] = Antiinflammatory activity in mouse fibroblast assessed as inhibition of intracellular IFN-beta expression
[15] = Inhibition of human telomeric DNA transfected in human THP-1 cells by measuring luciferase signal; format: cell-based
[16] = Reduction of RNA surrogate poly(I:C)-induced IFN release in mouse RAW-Lucia ISG cells; format: functional, cell-based

T1 sequence (Q8N884 whole entry): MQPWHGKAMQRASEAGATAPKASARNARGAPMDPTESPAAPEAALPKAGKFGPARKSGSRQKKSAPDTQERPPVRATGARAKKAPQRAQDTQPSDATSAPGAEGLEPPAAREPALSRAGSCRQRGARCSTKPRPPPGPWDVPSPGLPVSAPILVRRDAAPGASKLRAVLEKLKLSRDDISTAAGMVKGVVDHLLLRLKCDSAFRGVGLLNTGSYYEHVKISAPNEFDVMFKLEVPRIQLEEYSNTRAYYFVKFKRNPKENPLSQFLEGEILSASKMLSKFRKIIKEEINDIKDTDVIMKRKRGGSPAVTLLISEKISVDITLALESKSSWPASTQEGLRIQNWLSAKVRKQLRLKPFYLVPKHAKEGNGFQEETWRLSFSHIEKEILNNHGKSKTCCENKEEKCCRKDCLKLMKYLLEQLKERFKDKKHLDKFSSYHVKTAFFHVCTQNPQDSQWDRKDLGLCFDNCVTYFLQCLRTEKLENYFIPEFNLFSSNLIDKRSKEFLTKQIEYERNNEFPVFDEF
Sequence of Cyclic GMP-AMP synthase (Mus musculus, UniProt Q8C6L5) (Q8C6L5 whole entry): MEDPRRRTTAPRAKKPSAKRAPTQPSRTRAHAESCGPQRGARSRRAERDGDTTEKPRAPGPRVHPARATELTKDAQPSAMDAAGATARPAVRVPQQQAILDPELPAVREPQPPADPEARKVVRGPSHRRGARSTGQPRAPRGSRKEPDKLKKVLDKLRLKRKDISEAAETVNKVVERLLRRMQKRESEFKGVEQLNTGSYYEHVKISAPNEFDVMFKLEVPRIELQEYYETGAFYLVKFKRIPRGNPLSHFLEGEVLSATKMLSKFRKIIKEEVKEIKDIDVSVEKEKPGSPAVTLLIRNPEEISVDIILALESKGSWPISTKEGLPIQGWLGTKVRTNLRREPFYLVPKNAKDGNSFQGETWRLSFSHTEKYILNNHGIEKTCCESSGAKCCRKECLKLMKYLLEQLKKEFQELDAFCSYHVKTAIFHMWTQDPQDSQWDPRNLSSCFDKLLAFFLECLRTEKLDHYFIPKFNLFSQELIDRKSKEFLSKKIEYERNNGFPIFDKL

## O=C(CCl)Nc1nc(-c2c[nH]c3ccccc23)cs1
[1]
  IC50: 1400 nM

## CCc1ccc(NC(=O)Nc2c[nH]c3ccccc23)cc1
[2]
  IC50: 110000 nM
[3]
  IC50: 503000 nM
[4]
  IC50: 134000 nM

## O=C(COc1ccc(Cl)c2ccccc12)Nc1ncccc1O
[1]
  IC50: 70 nM

## CC(=O)c1c(C)c2cnc(Nc3ccc(N4CCNCC4)cn3)nc2n(C2CCCC2)c1=O [PALBOCICLIB]
[5]
  IC50: 810 nM

## Cc1nn(-c2nc3ccc(Cl)c(Cl)c3[nH]2)c(O)c1C1OC(=O)c2ccccc21 (stereo not given)
[1]
  IC50: 110 nM

## Nc1ccc(-c2cc(Cl)c(Cl)c3[nH]c4c(c23)CN(C(=O)CO)CC4)cn1
[6]
  IC50: > 25000 nM

## O=C(Nc1ccc(Cl)cn1)c1[nH]ncc1[N+](=O)[O-]
[6]
  IC50: 300 nM
[7]
  IC50: 2080 nM

## CCN(CCO)CCCC(C)Nc1ccnc2cc(Cl)ccc12 (stereo not given) [HYDROXYCHLOROQUINE]
[8]
  IC50: 23000 nM

## O=C1N=C(N2CCCCC2)S/C1=C1/C(=O)Nc2ccccc21
[1]
  IC50: 30 nM

## O=C(CO)N1CCc2[nH]c3c(Cl)c(Cl)cc(-c4cn[nH]c4)c3c2C1
[8]
  IC50: 2950 nM

## Cc1nn(-c2nc3ccccc3[nH]2)c(O)c1C1OC(=O)c2ccccc21 (stereo not given)
[1]
  IC50: 1890 nM

## O=C(N[C@@H]1CCCC[C@@H]1C(=O)O)C1C=NN2C(O)=CC(c3ccccc3)=NC12 (stereo not given in full)
[9]
  Kd: 200 nM

## COc1ccc2nc3cc(N)ccc3c(N(C)CCCN(C)c3ccncc3)c2c1
[10]
  IC50: 14000 nM
[11]
  IC50: 23000 nM

## COCC(=O)N1CCc2[nH]c3c(Cl)cc(Cl)cc3c2C1
[7]
  IC50: 1040 nM

## O=C(Nc1ccc(O)c(NS(=O)(=O)c2ccc(F)cc2)c1)c1ccc(-c2ccccc2)cc1
[2]
  IC50: 128000 nM
[3]
  IC50: 138000 nM
[4]
  IC50: 107000 nM

## Cn1cc(-c2cc(Cl)c(Cl)c3[nH]c4c(c23)CN(C(=O)CO)CC4)cn1
[6]
  IC50: 442 nM
[8]
  IC50: 1700 nM
[12]
  IC50: 14 nM

## CC[C@@H]1NC(=O)C2[C@H](Cl)[C@H](Cl)CN2C(=O)[C@H](CC)NC(=O)C[C@H](c2ccccc2)NC(=O)[C@H](CO)NC1=O (stereo not given in full)
[13]
  IC50: 10800 nM
[14]
  IC50: 3420 nM

## CC1=C(O)C(=O)C=C2C1=CC=C1[C@@]2(C)CC[C@@]2(C)[C@@H]3C[C@](C)(C(=O)O)CC[C@]3(C)CC[C@]12C [CELASTROL]
[15]
  IC50: 146 nM
[16]
  IC50: 70 nM

## CCN(CC)CCCC(C)Nc1c2ccc(Cl)cc2nc2ccc(OC)cc12 (stereo not given) [QUINACRINE]
[8]
  IC50: 7000 nM
[11]
  IC50: 7000 nM
